Laboratory results reported in US4859668A, “Method of inhibiting the growth of melanin-pigmented cells” (North Carolina State University, priority 1988, dated 1989).
In brackets after ≈: the same amount, converted by molar mass. Read-outs that look alike come from different tables or passages of the source.

Columns and labels:
HFH = assay: cells; conditions: Homo sapiens, read-out: Percent Cell Detachment
Method: (§1) HFH and SH heavily pigmented cells, S91 lightly pigmented cells, and BHK nonpigmented cells were exposed to 13.8 mM morpholine for time periods ranging from 1 hour to 56 hours. The procedure was otherwise the same as described in Example 1 above. Cell death is indicated by cell detachment.

S91 = assay: cells; conditions: Mus musculus, read-out: Percent Cell Detachment
Method: as §1

BHK [1] = assay: cells; conditions: Mesocricetus auratus, read-out: Percent Cell Detachment
Method: as §1

SH = assay: cells; conditions: read-out: Percent Cell Detachment
Method: as §1

L929 = assay: cells; conditions: Mus musculus, L929, 48 h, read-out: Growth inhibition, Morph. Alone vs. control
HFH-LP [2] = assay: Effect of Cyclic Amines on Survival of Pigmented Melanoma (Table II), HFH-LP; conditions: Mus musculus, 24 h, read-out: percentage dead, HFH-LP
Method: (§4) These cells were maintained as monolayers in Corning plastic flasks in Minimum Essential Medium (Eagle) with Earle's salts supplemented with 10% fetal bovine serum, 100 units of penicillin, 100 mg of streptomycin and 5 mg of amphotericin B per ml in 5% CO2 humidified air at 37° C.
(§5) Prior to dose-response studies, single cell suspensions were prepared in medium following trypsinization and inoculated into Falcon Multiwell plates (2 cm^2 wells) at 3.5×10^4 cells per 0.5 ml of medium. Cultures were maintained for 24 hours before exposure.
(§6) This stock solution was used to prepare test concentrations of the drug in culture medium. […] Cells were exposed to each of these concentrations by adding 0.5 ml of each of the solutions to triplicate test wells and incubating the cells under exposure at 37° C. for 1 hour. […] Cells were harvested after 48 hours and counted with a hemacytometer.

NP [3] = assay: cells; conditions: Mus musculus, 1.5 h, read-out: Effect on Growth Rate (inhibition), NP
Method: (§7) These cell cultures include low passage HFH (HFH-LP), a pigmented line derived from the B-16 mouse melanoma, and NP, an amelanotic clone of HFH-LP. […] These cells were maintained as monolayers in Corning plastic flasks in Minimum Essential Medium (Eagle) with Earle's salts supplemented with 10% fetal bovine serum, 100 units of penicillin, 100 mg of streptomycin and 5 mg of amphotericin B per ml in 5% CO2 humidified air at 37° C.
as §5, §6

[4] = system: unpigmented cell lines NP, BHK and CHO
Method: (§2) The Figure illustrates the effect of morpholine on the growth rate of HFH-LP (*), NP (0), BHK (+) and CHO (#) 48 hours after treatment. Values represent the mean ± S.E. for 3 to 6 determinations.

NP [5] = assay: cells; conditions: Mus musculus, 48 h, read-out: Growth inhibition, Morph. Alone vs. control
Excerpt: (§8) These cell cultures include low passage HFH (HFH-LP), a pigmented line derived from the B-16 mouse melanoma, and NP, an amelanotic clone of HFH-LP. High passage HFH (HFH-HP) was derived from HFH-LP after 30 passages in vitro. […] These cell cultures further include Cloudman S91 mouse melanoma, RPMI 1846 (a Syrian hamster melanoma), baby hamster kidney (BHK) and Chinese hamster ovary (CHO). These cells were maintained as monolayers in Corning plastic flasks in Minimum Essential Medium (Eagle) with Earle's salts supplemented with 10% fetal bovine serum, 100 units of penicillin, 100 mg of streptomycin and 5 mg of amphotericin B per ml in 5% CO2 humidified air at 37° C.
(§9) Single cell suspensions were prepared as described above. Twenty-four hours after seeding, the cells were exposed to either (a) culture medium alone, or (b) culture medium containing 0.5 mM theophylline.
(§10) The values given are the mean from 6 replicates.

S91 melanoma = assay: Effects of Various Cyclic Amines on Growth of Pigmented Melanoma Cells (Table III), S91; format: cell-based, mouse; conditions: Mus musculus, read-out: Percent Inhibition, S91 melanoma
Method: (§3) Pigmented S91 melanoma and unpigmented L929 fibroblast cells were treated with various cyclic amines at a concentration of 13.8 mM as described in Example 1 above.

L929 fibroblast = assay: Effects of Various Cyclic Amines on Growth of Pigmented Melanoma Cells (Table III), L929; format: cell-based, mouse; conditions: Mus musculus, read-out: Percent Inhibition, L929 fibroblast
Method: as §3

melanin-pigmented cells = assay: In vitro selective inhibition of melanin-pigmented cells, effective dosage/time regimens; format: cell-based
RPMI-1641 [6] = assay: cells; conditions: Mesocricetus auratus, 48 h, read-out: Growth inhibition, Morph. Alone vs. control
Excerpt: as §8, §9, §10

RPMI-1641 [7] = conditions: RPMI 1641, morpholine alone
Excerpt: as §8, §9, §10

HFH-LP [8] = assay: Effect of Cyclic Amines on Growth Rate of Pigmented Melanoma (Table I), HFH-LP; format: cell-based, mouse; conditions: for inhibition at 13800 µM: Mus musculus, read-out: Effect on Growth Rate (inhibition), HFH-LP
Method: as §7, §5, §6

BHK [9] = assay: cells; conditions: Mesocricetus auratus, 48 h, read-out: Growth inhibition, Morph. Alone vs. control
Excerpt: as §8, §9, §10

in vitro = conditions: mouse, l929 cells
Method: as §4, §5, §6

[10] = system: S91 (Cloudman S91 mouse melanoma); assay: Effect of Cyclic Amines on Survival of Pigmented Melanoma (Table II), S91; conditions: 24 h, read-out: percentage dead, S91
Method: as §4, §5, §6

[11] = system: Chinese hamster ovary (CHO); assay: cells; conditions: Cricetulus griseus, 48 h, read-out: ID50 (growth)
Method: as §2

[12] = system: baby hamster kidney (BHK); assay: cells; conditions: Mesocricetus auratus, 48 h, read-out: ID50 (growth)
Method: as §2

[13] = system: HFH-LP (pigmented line derived from the B-16 mouse melanoma); assay: cells
Method: as §2

[14] = system: NP (amelanotic clone of HFH-LP); assay: cells; conditions: Mus musculus, 48 h, read-out: ID50 (growth)
Method: as §2

HFH-LP [15] = assay: cells; conditions: Mus musculus, 48 h, read-out: Growth inhibition, Morph. Alone vs. control
Excerpt: as §8, §9, §10

[16] = Effect of Cyclic Amines on Survival of Pigmented Melanoma (Table II), L929; conditions: mouse, l929 cells
Method: as §4, §5, §6

Excerpt for HFH-HP: as §8, §9, §10

What does the source list for `C1COCCN1` [morpholine]?
cytotoxicity at 13800 µM (HFH; 1 h): 0%; cytotoxicity at 13800 µM (HFH; 6 h): 40%; cytotoxicity at 13800 µM (HFH; 12 h): 100%; cytotoxicity at 13800 µM (HFH; 18 h): 100%; cytotoxicity at 13800 µM (HFH; 24 h): 100%; cytotoxicity at 13800 µM (HFH; 56 h): 100%; cytotoxicity at 13800 µM (S91; S91, 1 h): 0%; cytotoxicity at 13800 µM (S91; S91, 6 h): 50%; cytotoxicity at 13800 µM (S91; S91, 12 h): 100%; cytotoxicity at 13800 µM (S91; S91, 18 h): 100%; cytotoxicity at 13800 µM (S91; S91, 24 h): 100%; cytotoxicity at 13800 µM (S91; S91, 56 h): 100%; cytotoxicity at 13800 µM (BHK [1]; 1 h): 0%; cytotoxicity at 13800 µM (BHK [1]; 6 h): 0%; cytotoxicity at 13800 µM (BHK [1]; 12 h): 0%; cytotoxicity at 13800 µM (BHK [1]; 18 h): 0%; cytotoxicity at 13800 µM (BHK [1]; 24 h): 20%; cytotoxicity at 13800 µM (BHK [1]; 56 h): 100%; cytotoxicity at 13800 µM (SH; 1 h): 0%; cytotoxicity at 13800 µM (SH; 6 h): 0%; cytotoxicity at 13800 µM (SH; 12 h): 5%; cytotoxicity at 13800 µM (SH; 18 h): 80%; cytotoxicity at 13800 µM (SH; 24 h): 80%; cytotoxicity at 13800 µM (SH; 56 h): 100%; greater toxicity of morpholine with theophylline pretreatment (HFH-HP; growth inhibition increasing from 25% to 54%): twofold; growth inhibition with theophylline pretreatment (HFH-HP; morpholine with theophylline pretreatment): 54%; inhibition at 1200 µg/mL (L929): -68%; cytotoxicity at 13800 µM (HFH-LP [2]): 30 ± 7%; inhibition at 13800 µM (NP [3]): 0%; difference between unpigmented cell lines ([4]; any of the dosages tested): did not differ significantly from one another; inhibition of nonpigmented cell growth ([4]; higher dosages, 48 hours after treatment): 20%; effect on nonpigmented cell growth ([4]; low dosages, 48 hours after treatment): not affected; inhibition at 1200 µg/mL (NP [5]): -9%; inhibition at 13800 µM (S91 melanoma; S91, 1 Hour Exposure to 13.8 mM): 60%; inhibition at 13800 µM (L929 fibroblast; L929, 1 Hour Exposure to 13.8 mM): 0%; in vitro effectiveness of dosage/time regimen (melanin-pigmented cells; 2.3 mM for 6 days): effective in vitro for inhibiting the growth of melanin-pigmented cells with little or no effect upon unpigmented cells; in vitro effectiveness of dosage/time regimen (melanin-pigmented cells; 13.8 mM for 1 hour): effective in vitro for inhibiting the growth of melanin-pigmented cells with little or no effect upon unpigmented cells; selective toxicity to melanoma cells in vitro (melanin-pigmented cells; 750 ppm (9mM) or 500 ppm (5mM)): selectively toxic to melanoma cells in vitro; inhibition at 1200 µg/mL (RPMI-1641 [6]): -6%; growth rate with morpholine exposure alone (RPMI-1641 [7]): not inhibited; inhibition at 13800 µM (HFH-LP [8]; 13.8 mM for 1.5 hr, mean ± S.E., 6 replicates): 97 ± 19%; inhibition at 1200 µg/mL (BHK [9]): 0%; cytotoxicity at 24 h, 13800 µM (in vitro): -101 ± 15%; cytotoxicity at 13800 µM [10]: 55 ± 6%; IC50 [11]: > 2400 µg/mL; IC50 [12]: > 2400 µg/mL; IC50 ([13]; Mus musculus, 48 h, read-out: ID50 (growth)): 1200 µg/mL (≈ 13.8 mM); inhibition of pigmented HFH cell line compared with unpigmented cell lines ([13]; at 1200 and 2400 ug/ml): inhibited significantly more (P<0.05); inhibition of pigmented cells ([13]; up to, 300-2400 ug/ml, 48 hours after treatment): up to 90%; IC50 [14]: > 2400 µg/mL; inhibition at 1200 µg/mL (HFH-LP [15]): 64%

Which results are given for `C1CCNCC1` [piperidine]?
cytotoxicity at 13800 µM (HFH-LP [2]): 33 ± 2%; inhibition at 13800 µM (NP [3]): 0%; inhibition at 13800 µM (S91 melanoma; S91, 1 h): 98%; inhibition at 13800 µM (L929 fibroblast; L929, 1 h): 0%; in vitro effectiveness of dosage/time regimen (melanin-pigmented cells; 13.8 mM for 1 hour): effective in vitro for inhibiting the growth of melanin-pigmented cells with little or no effect upon unpigmented cells; inhibition at 13800 µM (HFH-LP [8]; 1.5 h): 42 ± 4%; inhibition of pigmented cell line HFH-LP (in words) (HFH-LP [8]; not as effective as morpholine at the dosage tested): selectively inhibitory to the pigmented cell line HFH-LP, although not as effective as morpholine; cytotoxicity at 13800 µM [10]: 44 ± 3%; cytotoxicity at 24 h, 13800 µM [16]: -115 ± 14%
